Four molecules from patent publication US4670255A, “Hair tonic composition” (priority 1983, dated 1987) can be followed below.

Structures are written as SMILES.

The test system of this experiment is testosterone 5α-reductase. Briefly: Determination of 5α-reductase inhibitory activity (labelled testosterone conversion). Format: biochemical, rats. On the procedure: Prostate gland cells of rats were crushed and a specimen of testosterone 5α-reductase was then prepared by separating microsome from the crushed liquid mixture. The conversion of testosterone to 5α-dihydrotestosterone by the use of the above-prepared enzyme specimen was monitored by radioisotopically labelled testosterone. The reaction mixture was extracted with ethyl acetate and the extract was developed twice by silica gel thin layer chromatography (solvent system, dichloromethane:cyclohexane:acetone=15:4:1). The amount of 5α-dihydrotestosterone were determined from the intensities of the radioactivity.
A 30 μl amount of a 0.05M phosphate buffer (pH=6.6) containing 0.1% of BSA (bovine serum albumin), 10 μl of an enzyme specimen, 8.5 pmol of labelled testosterone, 50 nmol of a reduced form of NADP (nicotinamide adenine dinucleotide phosphate), and 10 μl of a test sample were mixed (total amount=50 μl). The mixture was allowed to react at a temperature of 25° C. for 60 minutes.
After the completion of the reaction, the reaction mixture was extracted with ethyl acetate by adding 50 μl of ethyl acetate to the reaction mixture. The extract was developed in the same manner as mentioned above and the intensity of the radioisotope was measured by using a scintillation counter.
The above-mentioned determination was applied to the samples having various concentrations. The 5α-reductase inhibitory activity was obtained as a inhibitory rate (%) or a 50% inhibitory concentration.

`CCCCC/C=C\C/C=C\CCCCCCCC(=O)O` [linolic acid]: the “5α-reductase inhibitory activity (in words)” value is listed as “especially strong”.
As for `CCCCCCCC/C=C\CCCCCCCC(=O)O` [oleic acid], the “5α-reductase inhibitory activity (in words)” value is reported as “especially strong”.
Take `CCCCCCCCCCCCCCCC(=O)O` [palmitic acid]: the “5α-reductase inhibitory activity (in words)” value is reported as “especially strong”.
Then `CCCCCC/C=C\CCCCCCCC(=O)O` [palmitoleic acid], with “especially strong”.
